The experiment deals with T1, SYK kinase (Homo sapiens, UniProt P43405).
T1 construct: purchased Invitrogen, Carlsbad
Nature of the experiment: SYK assay (OMNIA Kinase Assay, Invitrogen). The class given is biochemical. To be noted: SYK Activities; 1 mM ATP, 10 μM Omnia Peptide Substrate Tyr 7, 30° C. The method in brief: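 SYK was added last to start phosphorylation of a chelation-enhanced SOX peptide substrate (10 μM) in the presence of 1 mM ATP and 0.2 mM DTT at 30° C. Kinetic readings at λex 360/λem 485 nm over 30 min gave velocities, fitted sigmoidally against compound concentration to give IC50.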
The compound `CC(C)Cn1cc(Nc2nc(-c3cccc(NS(C)(=O)=O)c3)nc3cn[nH]c23)cn1` [Example 261, N-(3-(7-((1-isobutyl-1H-pyrazol-4-yl)amino)-1H-pyrazolo[4,3-d]pyrimidin-5-yl)phenyl)methanesulfonamide] registered an IC50 of 100 to 1000 nM.

`CS(=O)(=O)Nc1cccc(-c2nc(Nc3cnn(CCO)c3)c3[nH]ncc3n2)c1` [Example 262, N-(3-(7-((1-(2-hydroxyethyl)-1H-pyrazol-4-yl)amino)-1H-pyrazolo[4,3-d]pyrimidin-5-yl)phenyl)methanesulfonamide] showed an IC50 of 100 to 1000 nM.

With `CS(=O)(=O)Nc1cccc(-c2nc(Nc3cnn(C4CCOCC4)c3)c3[nH]ncc3n2)c1` [Example 263, N-(3-(7-((1-(tetrahydro-2H-pyran-4-yl)-1H-pyrazol-4-yl)amino)-1H-pyrazolo[4,3-d]pyrimidin-5-yl)phenyl)methanesulfonamide], the concentration for half-maximal inhibition (IC50) fell in the range of 100 to 1000 nM.

As to `CN1CCC(n2cc(Nc3nc(-c4cccc(NS(C)(=O)=O)c4)nc4cn[nH]c34)cn2)CC1` [Example 264, N-(3-(7-((1-(1-methylpiperidin-4-yl)-1H-pyrazol-4-yl)amino)-1H-pyrazolo[4,3-d]pyrimidin-5-yl)phenyl)methanesulfonamide], the IC50 fell in the range of 10 to 100 nM.

For `COCCn1cc(Nc2nc(-c3cccc(NS(C)(=O)=O)c3)nc3cn[nH]c23)cn1` [Example 265, N-(3-(7-((1-(2-methoxyethyl)-1H-pyrazol-4-yl)amino)-1H-pyrazolo[4,3-d]pyrimidin-5-yl)phenyl)methanesulfonamide], the concentration for half-maximal inhibition (IC50) lay in the range of 100 to 1000 nM.

In the case of `CC(=O)N1CCC(n2cc(Nc3nc(-c4cccc(NS(C)(=O)=O)c4)nc4cn[nH]c34)cn2)CC1` [Example 266, N-(3-(7-((1-(1-acetylpiperidin-4-yl)-1H-pyrazol-4-yl)amino)-1H-pyrazolo[4,3-d]pyrimidin-5-yl)phenyl)methanesulfonamide], the IC50 fell in the range of 100 to 1000 nM.

`c1nn(C2CC2)cc1Nc1nc(C2CCC2)nc2cn[nH]c12` [Example 267, 5-cyclobutyl-N-(1-cyclopropyl-1H-pyrazol-4-yl)-1H-pyrazolo[4,3-d]pyrimidin-7-amine] had an IC50 of 10 to 100 nM.

Consider `CC(C)Cn1cc(Nc2nc(C(C)(C)C)nc3cn[nH]c23)cn1` [Example 268, 5-(tert-butyl)-N-(1-isobutyl-1H-pyrazol-4-yl)-1H-pyrazolo[4,3-d]pyrimidin-7-amine], for which the 50% inhibitory concentration (IC50) was in the range of 100 to 1000 nM.

In turn, `CC(C)n1cc(Nc2nc(C(C)(C)C)nc3cn[nH]c23)cn1` [Example 269, 5-(tert-butyl)-N-(1-isopropyl-1H-pyrazol-4-yl)-1H-pyrazolo[4,3-d]pyrimidin-7-amine] showed a half-maximal inhibitory concentration (IC50) of 10 to 100 nM.

As for `COCCCn1cc(Nc2nc(C(C)(C)C)nc3cn[nH]c23)cn1` [Example 270, 5-(tert-butyl)-N-(1-(3-methoxypropyl)-1H-pyrazol-4-yl)-1H-pyrazolo[4,3-d]pyrimidin-7-amine], the IC50 fell in the range of 100 to 1000 nM.

In the case of `CC(C)(C)c1nc(Nc2cnn(C3CC3)c2)c2[nH]ncc2n1` [Example 273, 5-(tert-butyl)-N-(1-cyclopropyl-1H-pyrazol-4-yl)-1H-pyrazolo[4,3-d]pyrimidin-7-amine], the IC50 was 100 to 1000 nM.

As for `c1coc(-c2nc(Nc3cnn(C4CC4)c3)c3[nH]ncc3n2)c1` [Example 278, N-(1-cyclopropyl-1H-pyrazol-4-yl)-5-(furan-2-yl)-1H-pyrazolo[4,3-d]pyrimidin-7-amine], the half-maximal inhibitory concentration (IC50) was 10 to 100 nM.

With `c1nn(C2CC2)cc1Nc1nc(C2CC2)nc2cn[nH]c12` [Example 282, 5-cyclopropyl-N-(1-cyclopropyl-1H-pyrazol-4-yl)-1H-pyrazolo[4,3-d]pyrimidin-7-amine], the IC50 lay within 10 to 100 nM.

For `COCC(C)(C)n1cc(Nc2nc(C3CC3)nc3cn[nH]c23)cn1` [Example 283, 5-cyclopropyl-N-(1-(1-methoxy-2-methylpropan-2-yl)-1H-pyrazol-4-yl)-1H-pyrazolo[4,3-d]pyrimidin-7-amine], the IC50 lay in the range of 10 to 100 nM.

For `Cc1c(Nc2nc(C3CC3)nc3cn[nH]c23)cnn1C(C)C` [Example 287, 5-cyclopropyl-N-(1-isopropyl-5-methyl-1H-pyrazol-4-yl)-1H-pyrazolo[4,3-d]pyrimidin-7-amine], the IC50 was in the range of 100 to 1000 nM.

`COCC(C)(C)n1cc(Nc2nc(-c3ccoc3)nc3cn[nH]c23)cn1` [Example 290, 5-(furan-3-yl)-N-(1-(1-methoxy-2-methylpropan-2-yl)-1H-pyrazol-4-yl)-1H-pyrazolo[4,3-d]pyrimidin-7-amine] registered a 50% inhibitory concentration (IC50) of 100 to 1000 nM.

`CC(C)(C)N1CCC(n2cc(Nc3nc(-c4ccoc4)nc4cn[nH]c34)cn2)CC1` [Example 291, N-(1-(1-(tert-butyl)piperidin-4-yl)-1H-pyrazol-4-yl)-5-(furan-3-yl)-1H-pyrazolo[4,3-d]pyrimidin-7-amine] showed an IC50 of less than 10 nM.

Regarding `Cc1nn(C(C)C)cc1Nc1nc(-c2ccoc2)nc2cn[nH]c12` [Example 292, 5-(furan-3-yl)-N-(1-isopropyl-3-methyl-1H-pyrazol-4-yl)-1H-pyrazolo[4,3-d]pyrimidin-7-amine], the IC50 lay in the range of 100 to 1000 nM.

The compound `Cc1nn(C2CCOCC2)cc1Nc1nc(-c2ccoc2)nc2cn[nH]c12` [Example 294, 5-(furan-3-yl)-N-(3-methyl-1-(tetrahydro-2H-pyran-4-yl)-1H-pyrazol-4-yl)-1H-pyrazolo[4,3-d]pyrimidin-7-amine] displayed a half-maximal inhibitory concentration (IC50) of 100 to 1000 nM.

`Cc1c(Nc2nc(-c3ccoc3)nc3cn[nH]c23)cnn1C1CCOCC1` [Example 295, 5-(furan-3-yl)-N-(5-methyl-1-(tetrahydro-2H-pyran-4-yl)-1H-pyrazol-4-yl)-1H-pyrazolo[4,3-d]pyrimidin-7-amine] returned an IC50 of 100 to 1000 nM.

In turn, `O=c1cc(Nc2nc(C3CC3)nc3cn[nH]c23)ccn1C1CC1` [Example 296, 1-cyclopropyl-4-((5-cyclopropyl-1H-pyrazolo[4,3-d]pyrimidin-7-yl)amino)pyridin-2(1H)-one] yielded an IC50 of 10 to 100 nM.

`CC(C)n1ncc(Nc2nc(C3CC3)nc3cn[nH]c23)c1Cl` [Example 297, N-(5-chloro-1-isopropyl-1H-pyrazol-4-yl)-5-cyclopropyl-1H-pyrazolo[4,3-d]pyrimidin-7-amine] registered an IC50 of 100 to 1000 nM.

Turning to `CC(C)n1ncc(Nc2nc(C3CCC3)nc3cn[nH]c23)c1Cl` [Example 312, N-(5-chloro-1-isopropyl-1H-pyrazol-4-yl)-5-cyclobutyl-1H-pyrazolo[4,3-d]pyrimidin-7-amine], the IC50 lay in the range of 100 to 1000 nM.

In turn, `COc1ccc(Nc2nc(-c3cccc(C(=O)Nc4ccc(-c5cnco5)cc4)c3)nc3cn[nH]c23)cc1OC` [Example 319, 3-(7-((3,4-dimethoxyphenyl)amino)-1H-pyrazolo[4,3-d]pyrimidin-5-yl)-N-(4-(oxazol-5-yl)phenyl)benzamide] showed an IC50 of 100 to 1000 nM.

`COc1ccc(Nc2nc(-c3cccc(C(=O)Nc4ccc(-c5ncco5)cc4)c3)nc3cn[nH]c23)cc1OC` [Example 321, 3-(7-((3,4-dimethoxyphenyl)amino)-1H-pyrazolo[4,3-d]pyrimidin-5-yl)-N-(4-(oxazol-2-yl)phenyl)benzamide] came in with an IC50 of 100 to 1000 nM.

On to `Cc1c(Nc2nc(C3CCC3)nc3cn[nH]c23)cnn1C(C)C` [Example 325, 5-cyclobutyl-N-(1-isopropyl-5-methyl-1H-pyrazol-4-yl)-1H-pyrazolo[4,3-d]pyrimidin-7-amine], for which the IC50 lay within 100 to 1000 nM.
